Ends that are not written are not given here. Peptide text beside a SMILES is read from it.
Experiments:
[1] = system: Staphylococcus aureus CVCC 546; experiment: microbe, parasite or virus in culture; format: cell-based; settings: Table 1; – = no activity
Protocol: (§1) The minimal inhibitory concentration (MIC) was evaluated by a microtiter plate assay ([Wiegand et al., 2008]). Serial 2-fold dilutions of test peptides were placed into a 96-well plate containing identical bacterial inoculum and incubated at 37°C for 16∼20 h. Vancomycin was used as antibiotic control. The MIC value was defined as the lowest peptide concentration where no visible growth occurred. All tests were made in triplicate.

S. aureus ATCC 43300 = format: cell-based, Staphylococcus aureus; settings: microtiter, serial 2-fold dilutions, 37°C, 16∼20 h, triplicate; – = no activity
Protocol: as §1

S. aureus CVCC 546 = experiment: Potassium ion (K+) leakage; format: cell-based, Staphylococcus aureus; settings: 1 × MIC, treated for 150 min, 0.9% saline, 10^8 CFU/mL, ICP, n = 3
Protocol: To further investigate the effects of peptides on membrane integrity, K^+ leakage determination was carried out as previously described ([Miao et al., 2016]). Briefly, S. aureus CVCC 546 cells were centrifuged, washed, and resuspended in 0.9% sterile saline. The cell suspension (10^8 CFU/mL) was treated with peptides at 1 × MIC. Cells untreated and treated with DLP4 or nisin were used as blank and positive controls. At time intervals of 30, 60, 90, 120, and 150 min, the suspensions were centrifuged at 12000 rpm for 5 min. The supernatants were then subjected to measurement by Agilent inductively coupled plasma optical emission (ICP-OES).

Compound	MIC [1]	A1 (MIC against S. aureus ATCC 43300) (S. aureus ATCC 43300) [µg/mL]	level of released K+ (S. aureus CVCC 546) [mg/L]
CC(C)C[C@@H]1NC(=O)[C@@H]2CSSC[C@@H](C(=O)N[C@@H](CCCNC(=N)N)C(=O)N[C@@H](CCCCN)C(=O)O)NC(=O)[C@H](CC(N)=O)NC(=O)[C@@H]3CSSC[C@H](NC(=O)[C@H](C)NC(=O)[C@H](C)NC(=O)[C@H](Cc4c[nH]cn4)NC(=O)CNC(=O)[C@H](C(C)C)NC(=O)[C@H](CCCCN)NC(=O)[C@H](Cc4ccccc4)NC(=O)[C@@H]4CCCN4C(=O)[C@H](CO)NC(=O)[C@H](CC(C)C)NC(=O)[C@H](CC(C)C)NC(=O)[C@H](CC(=O)O)NC(=O)[C@@H](NC(=O)[C@@H](NC(=O)[C@H](C)N)[C@@H](C)O)CSSC[C@H](NC(=O)[C@H](Cc4c[nH]c5ccccc45)NC(=O)CNC(=O)CNC(=O)[C@H](CCCNC(=N)N)NC(=O)[C@H](CCCCN)NC(=O)CNC(=O)[C@H](CCCNC(=N)N)NC(=O)[C@H](C)NC1=O)C(=O)N[C@@H](CC(=O)O)C(=O)N[C@@H](CCCCN)C(=O)N[C@@H](CCCNC(=N)N)C(=O)N[C@@H](C)C(=O)N[C@@H](C(C)C)C(=O)N3)C(=O)N[C@@H](C)C(=O)N[C@@H](C)C(=O)N[C@@H](Cc1c[nH]cn1)C(=O)N2 [ID29] (HELM PEPTIDE1{A.T.C.D.L.L.S.P.F.K.V.G.H.A.A.C.A.A.H.C.L.A.R.G.K.R.G.G.W.C.D.K.R.A.V.C.N.C.R.K}$PEPTIDE1,PEPTIDE1,3:R3-30:R3|PEPTIDE1,PEPTIDE1,16:R3-36:R3|PEPTIDE1,PEPTIDE1,20:R3-38:R3$$$V2.0; N-terminus and C-terminus assumed; bridges inferred)	128	64	
CC[C@H](C)[C@@H]1NC(=O)[C@@H]2CSSC[C@@H](C(=O)N[C@@H](CCCNC(=N)N)C(=O)N[C@@H](CCCCN)C(=O)O)NC(=O)[C@H](CC(N)=O)NC(=O)[C@@H]3CSSC[C@H](NC(=O)[C@H](C)NC(=O)[C@H](C)NC(=O)[C@H](Cc4c[nH]cn4)NC(=O)CNC(=O)[C@H](C(C)C)NC(=O)[C@H](CCCCN)NC(=O)[C@H](Cc4ccccc4)NC(=O)[C@@H]4CCCN4C(=O)[C@H](CO)NC(=O)[C@H](CC(C)C)NC(=O)[C@H](CC(C)C)NC(=O)[C@H](CC(=O)O)NC(=O)[C@@H](NC(=O)[C@@H](NC(=O)[C@H](C)N)[C@@H](C)O)CSSC[C@H](NC(=O)[C@H](Cc4c[nH]c5ccccc45)NC(=O)CNC(=O)CNC(=O)[C@H](CCCNC(=N)N)NC(=O)[C@H](CCCCN)NC(=O)CNC(=O)[C@H](CCCNC(=N)N)NC(=O)[C@H](C)NC1=O)C(=O)N[C@@H](CC(=O)O)C(=O)N[C@@H](CCCCN)C(=O)N[C@@H](CCCNC(=N)N)C(=O)N[C@@H](C)C(=O)N[C@@H](C(C)C)C(=O)N3)C(=O)N[C@@H](C)C(=O)N[C@@H](C(C)C)C(=O)N[C@@H](Cc1c[nH]cn1)C(=O)N2 [ID28] (HELM PEPTIDE1{A.T.C.D.L.L.S.P.F.K.V.G.H.A.A.C.A.V.H.C.I.A.R.G.K.R.G.G.W.C.D.K.R.A.V.C.N.C.R.K}$PEPTIDE1,PEPTIDE1,3:R3-30:R3|PEPTIDE1,PEPTIDE1,16:R3-36:R3|PEPTIDE1,PEPTIDE1,20:R3-38:R3$$$V2.0; N-terminus and C-terminus assumed; bridges inferred)	16	8	
nisin (ITSISLCTPGCKTGALMGCNMKTATCHCSIHVSK; also: lantibiotic: thioether rings and dehydro residues not placed; UniProt P13068 24-57, looked up) [positive control in K+ leakage assay]			1.03
CC[C@H](C)[C@@H]1NC(=O)[C@@H]2CSSC[C@@H](C(=O)N[C@@H](CCCNC(=N)N)C(=O)N[C@@H](CCCCN)C(=O)O)NC(=O)[C@H](CC(N)=O)NC(=O)[C@@H]3CSSC[C@H](NC(=O)[C@H](C)NC(=O)[C@H](C)NC(=O)[C@H](Cc4c[nH]cn4)NC(=O)CNC(=O)[C@H](C(C)C)NC(=O)[C@H](CCCCN)NC(=O)[C@H](Cc4ccccc4)NC(=O)[C@@H]4CCCN4C(=O)[C@H](CO)NC(=O)[C@H](CC(C)C)NC(=O)[C@H](CC(C)C)NC(=O)[C@H](CC(=O)O)NC(=O)[C@@H](NC(=O)[C@@H](NC(=O)[C@H](C)N)[C@@H](C)O)CSSC[C@H](NC(=O)[C@H](Cc4c[nH]c5ccccc45)NC(=O)CNC(=O)CNC(=O)[C@H](CCCNC(=N)N)NC(=O)[C@H](CCCCN)NC(=O)CNC(=O)[C@H](CCCNC(=N)N)NC(=O)[C@H](C)NC1=O)C(=O)N[C@@H](CC(=O)O)C(=O)N[C@@H](CCCCN)C(=O)N[C@@H](CCCNC(=N)N)C(=O)N[C@@H](C)C(=O)N[C@@H](C(C)C)C(=O)N3)C(=O)N[C@@H](C)C(=O)N[C@@H](CC(C)C)C(=O)N[C@@H](Cc1c[nH]cn1)C(=O)N2 [ID27] (HELM PEPTIDE1{A.T.C.D.L.L.S.P.F.K.V.G.H.A.A.C.A.L.H.C.I.A.R.G.K.R.G.G.W.C.D.K.R.A.V.C.N.C.R.K}$PEPTIDE1,PEPTIDE1,3:R3-30:R3|PEPTIDE1,PEPTIDE1,16:R3-36:R3|PEPTIDE1,PEPTIDE1,20:R3-38:R3$$$V2.0; N-terminus and C-terminus assumed; bridges inferred)	8	8	

From article PMC7291858, “An Enhanced Variant Designed From DLP4 Cationic Peptide Against Staphylococcus aureus CVCC 546” (Frontiers in Microbiology, 2020)
